In US10774069B2, “Crystalline forms of a lysyl oxidase-like 2 inhibitor and methods of making” (PHARMAKEA, INC., priority 2016, dated 2020):
Entries after “also recorded” stand apart in the source; their conditions may differ. Where a name gives a salt, the structure may show the parent alone. Read-outs that look alike come from different tables or passages of the source.

Columns and labels:
[1] = Description: After each addition of solvent, the system was shaken gently for 10 minutes at 50° C. and then allowed to stand at room temperature for 5 min before the addition of a new aliquot of solvent. After the assessment was completed, any suspensions obtained were matured and clear solutions were cooled at 5° C.
Supernatants from maturation were allowed to slowly evaporate at ambient conditions.

[2] = Solid form storage stability at elevated temperature/humidity; type: physicochemical
Description: All retrieved solids from the crystallisation attempts were stored at 40° C. and 75% RH.

[3] = Stability studies (accelerated and ICH); type: physicochemical
Description: The compounds were assayed according to appearance, purity, related Substances, chiral purity, moisture, DSC, and XRPD

LOXL2 [4] = molecular target: T1, LOXL2 (Homo sapiens (Human), UniProt Q9Y4K0); experiment: Human LOXL2 CCM Assay (Amplex Red amine oxidase activity); type: biochemical; details: concentrated conditioned media from CHO cells expressing human LOXL2; 2 h at 37° C.
T1 sequence (Q9Y4K0 26-774): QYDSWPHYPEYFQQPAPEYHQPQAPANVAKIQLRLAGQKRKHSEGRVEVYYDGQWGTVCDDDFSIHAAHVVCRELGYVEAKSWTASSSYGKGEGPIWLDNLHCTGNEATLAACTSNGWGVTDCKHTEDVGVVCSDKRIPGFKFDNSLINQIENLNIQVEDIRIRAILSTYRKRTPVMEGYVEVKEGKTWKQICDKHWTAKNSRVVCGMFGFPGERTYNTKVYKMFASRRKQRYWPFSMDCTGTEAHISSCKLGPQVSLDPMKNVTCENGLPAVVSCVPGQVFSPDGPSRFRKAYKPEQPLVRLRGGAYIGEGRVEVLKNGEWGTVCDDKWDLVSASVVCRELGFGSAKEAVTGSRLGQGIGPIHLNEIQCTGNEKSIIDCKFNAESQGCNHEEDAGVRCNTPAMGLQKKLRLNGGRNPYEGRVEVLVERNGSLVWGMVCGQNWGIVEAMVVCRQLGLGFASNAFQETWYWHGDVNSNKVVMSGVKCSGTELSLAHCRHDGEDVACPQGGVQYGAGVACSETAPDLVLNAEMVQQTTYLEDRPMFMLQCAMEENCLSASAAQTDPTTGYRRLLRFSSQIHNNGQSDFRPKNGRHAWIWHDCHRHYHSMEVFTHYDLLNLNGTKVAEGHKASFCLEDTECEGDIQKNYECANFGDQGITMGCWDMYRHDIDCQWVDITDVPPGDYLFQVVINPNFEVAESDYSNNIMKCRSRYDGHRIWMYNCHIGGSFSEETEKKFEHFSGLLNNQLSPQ
Description: Human LOXL2/CHO and human LOX/HEK stable cell lines were cultured under normal growth conditions in 15 cm tissue culture plates until cells were ˜80% confluent. Cells were then washed with PBS before the addition of 25-30 mL serum-free media (Phenol red-free DMEM/F12 mix w/glutamax containing pen/strep, 10-100 μM CuCl2±0.1% BSA). Cells were incubated at 37° C., 5% CO2 in serum-free media for 40-48 hours before the conditioned media was removed and centrifuged at 2000 rpm for 5 min at 4° C. to pellet cells/debris. The media was concentrated 10-20× using 10-30 MWCO centriprep columns according to the manufacturer's instructions (EMD Millipore, Billerica, Mass.) before aliquoting and storing at −80° C.
LOXL2 amine oxidase activity was evaluated by measuring Amplex Red fluorescence using 10-20× concentrated conditioned media (non BSA-containing) from CHO cells stably expressing human LOXL2. […] After the 2 h incubation, 5 μL of 10 mM 1,5-Diaminopentane (DAP) diluted in Assay Buffer and 10 μL of Amplex Red Mix (8.5 μL Assay Buffer+0.5 μL of 10 mM Amplex Red+1 μL of 500 U/ml Horseradish Peroxidase) were added and the plate mixed and immediately placed on the FlexStation for fluorescence measurements. Fluorescence was read in kinetic mode every 2 min for 0.5-1 hour at excitation=544 and emission=590. The amine oxidase activity was calculated from the slope of the linear portion of the curve. […]

[5] = Clear point / cloud point in IPA:water (Crystal 16); type: physicochemical; details: mixture of Forms 1 and 4
Description: The samples were then cooled from 70 back to −8° C. at the same rate. The clear point upon heating (at 100% transmission) and the cloud point upon re-cooling (<100% transmission) were recorded using the Crystal 16 instrument and the data is shown in Table 17. XRPD analysis was performed on all solids obtained post cooling.

Forced degradation study = type: physicochemical
LOXL2 [6] = molecular target: T1, LOXL2; experiment: In vitro assays, potency of enantiomers; type: biochemical
[7] = Preliminary free base solubility assessment of Compound I; type: physicochemical; details: organic solvent or mixture, thermodynamic from solid
Description: After each addition of solvent, the system was shaken at 50° C. for 10 min and then allowed to stand at room temperature for 5 min before the addition of a new aliquot of solvent.

physchem = details: 25 °C, water, thermodynamic from solid
[8] = Solid form storage stability at elevated temperature/humidity; type: physicochemical; remark: listed apart in the source
[9] = Aqueous and organic solubility of Form 1 of Compound 2; type: physicochemical
[10] = Gravimetric Vapor Sorption (GVS); type: physicochemical; details: 0 to 90% RH
Excerpt: Gravimetric Vapor Sorption (GVS) isotherms were obtained using an SMS DVS Intrinsic moisture sorption analyser, controlled by DVS Intrinsic Control software v1.0.1.2 (or v 1.0.1.3), over a range of 0 to 90% relative humidity (RH).

With Cl.NCc1cc(Oc2cccc(C(=O)N3C[C@@H](O)[C@H](F)C3)c2)nc(C(F)(F)F)c1 [Amorphous Compound 1] the solubility [1] was 200 − 100, the “Behaviour at 40° C./75% RH” value ([2]; 40° C./75% RH) was “deliquesces” and the “7 days storage @ 40° C./75% RH, appearance” value ([2]; 40° C./75% RH) was “Glassy material”.
For Cl.NCc1cc(Oc2cccc(C(=O)N3C[C@@H](O)[C@H](F)C3)c2)nc(C(F)(F)F)c1 [Compound 1, (R,R)-trans-(3-((4-(aminomethyl)-6-(trifluoromethyl)pyridin-2-yl)oxy)phenyl)(3-fluoro-4-hydroxypyrrolidin-1-yl)methanone, hydrochloride salt], the “Changes in purity or absorption of moisture” value ([3]; 3 month accelerated condition (40° C./75% RH)) was “no significant changes” and the IC50 (LOXL2 [4]) was < 300 nM.
In the case of NCc1cc(Oc2cccc(C(=O)N3C[C@@H](O)[C@H](F)C3)c2)nc(C(F)(F)F)c1 [Compound 2, (R,R)-trans-(3-((4-(aminomethyl)-6-(trifluoromethyl)pyridin-2-yl)oxy)phenyl)(3-fluoro-4-hydroxypyrrolidin-1-yl)methanone, methanesulfonate salt], the “Clear Point Temperature” value ([5]; 5 mg in 1 mL IPA:water 95:5) is reported as 6.9 °C, the “Clear Point Temperature” value ([5]; 10 mg in 1 mL IPA:water 95:5) is reported as 20.3 °C and the “Clear Point Temperature” value ([5]; 20 mg in 1 mL IPA:water 95:5) is reported as 37.2 °C. The “Clear Point Temperature” value ([5]; 30 mg in 1 mL IPA:water 95:5) was 48.5 °C, the “Cloud Point Temperature” value ([5]; 30 mg in 1 mL IPA:water 95:5) was −7.8 °C and the “Clear Point Temperature” value ([5]; 40 mg in 1 mL IPA:water 95:5) was 55.8 °C. For the same compound, the “Cloud Point Temperature” value ([5]; 40 mg in 1 mL IPA:water 95:5) was −1.8 °C, the “Clear Point Temperature” value ([5]; 60 mg in 1 mL IPA:water 95:5) was 64 °C and the “Cloud Point Temperature” value ([5]; 60 mg in 1 mL IPA:water 95:5) was 14.5 °C. The “Clear Point Temperature” value ([5]; 70 mg in 1 mL IPA:water 95:5) was 68.6 °C, the “Cloud Point Temperature” value ([5]; 70 mg in 1 mL IPA:water 95:5) was 24.7 °C and the “All attributes tested (appearance, purity, related substances, chiral purity, moisture, DSC, XRPD)” value ([3]; 1 month data, long-term and accelerated conditions of 1-year and 2-year ICH studies) was “within limits”. For the same compound, the “Solid state stability, heat” value (Forced degradation study; solid, 100° C., 24 hours) was “stable”, the “Solid state stability, light” value (Forced degradation study; solid, light max 365 nm, 24 hours) was “stable” and the “Solution state stability, heat” value (Forced degradation study; solution, 50° C. for 24 hours) was “stable”.
In the case of NCc1cc(Oc2cccc(C(=O)N3C[C@@H](O)[C@H](F)C3)c2)nc(C(F)(F)F)c1 [Compound I, (R,R)-trans-(3-((4-(aminomethyl)-6-(trifluoromethyl)pyridin-2-yl)oxy)phenyl)(3-fluoro-4-hydroxypyrrolidin-1-yl)methanone], the “Potency relative to the (S,S)-isomer” value (LOXL2 [6]) is reported as “less than 2 fold”, the solubility at 10 min ([7]; 2-Propanol) is reported as > 100 mg/mL and the solubility at 10 min ([7]; Acetonitrile) is reported as > 100 mg/mL. The solubility at 10 min ([7]; Dichloromethane) was > 100 mg/mL, the solubility at 10 min ([7]; Ethanol) was > 100 mg/mL and the solubility at 10 min ([7]; Ethyl Acetate) was > 100 mg/mL. For the same compound, the solubility at 10 min ([7]; Hexane) was > 100 mg/mL, the solubility at 10 min ([7]; Tetrahydrofuran) was > 100 mg/mL and the solubility at 10 min ([7]; Toluene, up to 50 vol) was > 20 mg/mL.
For Cl.NCc1cc(Oc2cccc(C(=O)N3C[C@@H](O)[C@H](F)C3)c2)nc(C(F)(F)F)c1 [Form 1 of Compound 1], the “Solubility in maturation solvents” value [1] was “insoluble”, the Behaviour on storage ([2]; 40° C. and 75% RH, after 24 hours) was “deliquescing” and the “Form change on storage” value ([2]; 40° C./75% RH for one week) was “transforms to Form 2”. For the same compound, the “7 days storage @ 40° C./75% RH, appearance” value ([2]; 40° C./75% RH) was “Waxy/glassy solid +”, the “7 days storage @ 40° C./75% RH, resulting XRPD form” value ([2]; 40° C./75% RH) was “particles - Form 2” and the solubility (physchem) was ≥ 1000 mg/mL. For the same compound, the “Hygroscopicity” value [8] was “hygroscopic solid; also recorded: hygroscopic form”.
For CS(=O)(=O)O.NCc1cc(Oc2cccc(C(=O)N3C[C@@H](O)[C@H](F)C3)c2)nc(C(F)(F)F)c1 [Form 1 of Compound 2], the solubility ([9]; aqueous medium, pH 2, aqueous buffer, read-out: Aqueous Solubility) was > 107 mg/mL, the solubility ([9]; aqueous medium, pH 7.4, aqueous buffer, read-out: Aqueous Solubility) was > 107 mg/mL and the solubility ([9]; aqueous medium, pH 10, aqueous buffer, read-out: Aqueous Solubility) was > 85 mg/mL. The solubility ([9]; ethanol, organic solvent or mixture, EtOH, read-out: Organic Solubility, Qualitative Solubility) was ~15 mg/mL, the solubility ([9]; ethanol/water (90:10), isopropanol/water (90:10), organic solvent or mixture, read-out: Organic Solubility, Qualitative Solubility) was ~50 mg/mL and the solubility ([9]; methanol, tetrahydrofuran/water (90:10), organic solvent or mixture, read-out: Organic Solubility, Qualitative Solubility) was ~100 mg/mL. The solubility ([9]; organic solvent or mixture, isopropyl acetate, isopropanol, methyl-ethyl ketone, acetone, ethanol, methyl-t-butyl ether, 1,4 dioxane, toluene, tetrahydrofuran, dichloromethane, acetonitrile, read-out: Organic Solubility, Qualitative Solubility) was ≤ 10 mg/mL, the solubility ([9]; water, dimethyl sulfoxide, read-out: Organic Solubility, Qualitative Solubility) was > 200 mg/mL and the “Polymorph stability on storage” value ([2]; 7 days at 40° C./75% RH and 25° C./97% RH) was “Form 1, which is stable for 7 days at 40° C./75% RH and 25° C./97%”. The “XRPD after the GVS analysis” value [10] was “X-ray powder diffraction (XRPD): Unchanged”.
In the case of Cl.NCc1cc(Oc2cccc(C(=O)N3C[C@@H](O)[C@H](F)C3)c2)nc(C(F)(F)F)c1 [Form 2 of Compound 1], the “7 days storage @ 40° C./75% RH, appearance” value ([2]; 40° C./75% RH) is reported as “Waxy/glassy solid +”, the “7 days storage @ 40° C./75% RH, resulting XRPD form” value ([2]; 40° C./75% RH) is reported as “particles - Form 2” and the “Physical change over time” value ([2]; over time) is reported as “converts over time to a waxy solid”. The Behaviour on storage ([2]; storage conditions (40° C. and 75% RH) for 1 week) was “remained unchanged” and the “Thermal stability” value [8] was “thermally stable”.
In the case of CS(=O)(=O)O.NCc1cc(Oc2cccc(C(=O)N3C[C@@H](O)[C@H](F)C3)c2)nc(C(F)(F)F)c1 [Form 2 of Compound 2], the “Form change after GVS and storage” value ([2]; after GVS analysis and 7 days at 40° C./75% RH) is reported as “phase transformation towards Form 1”, the “Form conversion in humidity” value ([2]; in humidity) is reported as “converts to Form 1” and the “Form change on storage” value ([8]; 7 days at 25° C./97% RH) is reported as “change also occurs”.
With CS(=O)(=O)O.NCc1cc(Oc2cccc(C(=O)N3C[C@@H](O)[C@H](F)C3)c2)nc(C(F)(F)F)c1 [Form 3 of Compound 2] the “XRPD change on heating and storage” value ([2]; heating to 130° C. and upon the storage conditions) was “changed to Form 1”.
